# From patent US8198330B2, “Therapeutic or prophylactic agent for diabetes, obesity, dyslipidemia or metabolic syndrome comprising benzylamine derivative or pharmaceutically acceptable acid addition salt thereof” (Toray Industries, Inc., priority 2008, dated 2012)
# Tested on: anesthetized dog
# Test: Effect on electrocardiogram of anesthetized dog
# Assay type: in vivo
# Conditions: for QTc: Fridericia
# Description: A male beagle and a female beagle of 11 months of age were used in the test. A beagle was anesthetized by intravenous administration of thiopental sodium at 25 mg/kg, and fixed at the dorsal position under anesthesia by isoflurane inhalation with oxygen-nitrous oxide gas (1:1). Artificial respiration was carried out under the condition of 20 mL/kg and 15 times/minute. In measurement of the electrocardiogram, bipolar extremity leads (I, II and III) and augmented unipolar extremity leads (aVR, aVL and aVF) were recorded and QT interval determined by using an electrocardiogram analyzer for animals (α6000AX-D, Fukuda M-E Kogyo Co., Ltd.), as needle electrodes were placed on four extremities.
# The QTc value was calculated according to the Fridericia's formula: QTc=QT/^3√{square root over ( )}(R−R). For observation of arrhythmia in electrocardiographic waveform during test, compression electrocardiogram was printed out from the small memory card by using a long-term electrocardiogram analyzer (HS1000 system, Fukuda M-E Kogyo Co., Ltd.). The samples of the compound of Example 1 were prepared by dissolving the compound in physiological saline at concentrations of 12 mg/mL, 4 mg/mL and 1.2 mg/mL. After confirmation of stabilization of the electrocardiogram, the sample was administered through a needle (22G) previously placed in the side forearm subcutaneous vein, by using an automatic injector (Harvard digital infusion pump MODEL-22, HARVARD […]) over a period of 10 minutes.
# First, vehicle (physiological saline) was administered in an amount of 0.5 mL/kg and then, after 35 minutes, 1.2 mg/mL physiological saline solution of the compound of Example 1 was administered in an amount of 0.5 mL/kg. Additionally, 4 mg/mL or 12 mg/mL physiological saline solution of the compound of Example 1 was administered in an amount of 0.5 mL/kg at an interval of 65 minutes after administration. The QT interval and the QTc value were measured, in each administration above, 5 minutes before administration, immediately before start of administration, as well as 5, 10, 15 and 30 minutes after start of administration. Thus, the measured value 30 or 60 minutes after start of previous administration corresponds to the value 5 minutes before start of administration for the following application.
# [1] = Individual 1 (male), 0.6 mg/kg/10 min i.v., 0 min (immediately before start of administration)
# [2] = Individual 1 (male), 0.6 mg/kg/10 min i.v., 5 min after start of administration
# [3] = Individual 1 (male), 0.6 mg/kg/10 min i.v., 10 min after start of administration
# [4] = Individual 1 (male), 0.6 mg/kg/10 min i.v., 15 min after start of administration
# [5] = Individual 1 (male), 0.6 mg/kg/10 min i.v., 30 min after start of administration
# [6] = Individual 1 (male), 0.6 mg/kg/10 min i.v., 45 min after start of administration
# [7] = Individual 1 (male), 0.6 mg/kg/10 min i.v., 60 min after start of administration
# [8] = Individual 1 (male), 2 mg/kg/10 min i.v., 0 min (immediately before start of administration)
# [9] = Individual 1 (male), 2 mg/kg/10 min i.v., 5 min after start of administration
# [10] = Individual 1 (male), 2 mg/kg/10 min i.v., 10 min after start of administration
# [11] = Individual 1 (male), 2 mg/kg/10 min i.v., 15 min after start of administration
# [12] = Individual 1 (male), 2 mg/kg/10 min i.v., 30 min after start of administration
# [13] = Individual 1 (male), 2 mg/kg/10 min i.v., 45 min after start of administration
# [14] = Individual 1 (male), 2 mg/kg/10 min i.v., 60 min after start of administration
# [15] = Individual 1 (male), 6 mg/kg/10 min i.v., 0 min (immediately before start of administration)
# [16] = Individual 1 (male), 6 mg/kg/10 min i.v., 5 min after start of administration
# [17] = Individual 1 (male), 6 mg/kg/10 min i.v., 10 min after start of administration
# [18] = Individual 1 (male), 6 mg/kg/10 min i.v., 15 min after start of administration
# [19] = Individual 1 (male), 6 mg/kg/10 min i.v., 30 min after start of administration
# [20] = Individual 1 (male), 6 mg/kg/10 min i.v., 45 min after start of administration
# [21] = Individual 1 (male), 6 mg/kg/10 min i.v., 60 min after start of administration
# [22] = Individual 2 (female), 0.6 mg/kg/10 min i.v., 0 min (immediately before start of administration)
# [23] = Individual 2 (female), 0.6 mg/kg/10 min i.v., 5 min after start of administration
# [24] = Individual 2 (female), 0.6 mg/kg/10 min i.v., 10 min after start of administration
# [25] = Individual 2 (female), 0.6 mg/kg/10 min i.v., 15 min after start of administration
# [26] = Individual 2 (female), 0.6 mg/kg/10 min i.v., 30 min after start of administration
# [27] = Individual 2 (female), 0.6 mg/kg/10 min i.v., 45 min after start of administration
# [28] = Individual 2 (female), 0.6 mg/kg/10 min i.v., 60 min after start of administration
# [29] = Individual 2 (female), 2 mg/kg/10 min i.v., 0 min (immediately before start of administration)
# [30] = Individual 2 (female), 2 mg/kg/10 min i.v., 5 min after start of administration
# [31] = Individual 2 (female), 2 mg/kg/10 min i.v., 10 min after start of administration
# [32] = Individual 2 (female), 2 mg/kg/10 min i.v., 15 min after start of administration
# [33] = Individual 2 (female), 2 mg/kg/10 min i.v., 30 min after start of administration
# [34] = Individual 2 (female), 2 mg/kg/10 min i.v., 45 min after start of administration
# [35] = Individual 2 (female), 2 mg/kg/10 min i.v., 60 min after start of administration
# [36] = Individual 2 (female), 6 mg/kg/10 min i.v., 0 min (immediately before start of administration)
# [37] = Individual 2 (female), 6 mg/kg/10 min i.v., 5 min after start of administration
# [38] = Individual 2 (female), 6 mg/kg/10 min i.v., 10 min after start of administration
# [39] = Individual 2 (female), 6 mg/kg/10 min i.v., 15 min after start of administration
# [40] = Individual 2 (female), 6 mg/kg/10 min i.v., 30 min after start of administration
# [41] = Individual 2 (female), 6 mg/kg/10 min i.v., 45 min after start of administration
# [42] = Individual 2 (female), 6 mg/kg/10 min i.v., 60 min after start of administration
# [43] = anesthetized beagle, i.v. 0.6, 2 and 6 mg/kg/10 min
structure (smiles),measurement,setting,value
"COc1cc(CN[C@@H](C)[C@H](O)c2ccc(O)c(NS(C)(=O)=O)c2)cc(OC)c1 [Example 1, N-(5-((1R,2S)-2-(3,5-Dimethoxybenzylamino)-1-hydroxypropyl)-2-hydroxyphenyl)methanesulfonamide]",QT interval,[1],241 ms
same,QTc,[1],303 ms
same,QT interval,[2],228 ms
same,QTc,[2],299 ms
same,QT interval,[3],210 ms
same,QTc,[3],287 ms
same,QT interval,[4],205 ms
same,QTc,[4],280 ms
same,QT interval,[5],213 ms
same,QTc,[5],290 ms
same,QT interval,[6],220 ms
same,QTc,[6],296 ms
same,QT interval,[7],221 ms
same,QTc,[7],294 ms
same,QT interval,[8],218 ms
same,QTc,[8],293 ms
same,QT interval,[9],203 ms
same,QTc,[9],283 ms
same,QT interval,[10],203 ms
same,QTc,[10],283 ms
same,QT interval,[11],213 ms
same,QTc,[11],294 ms
same,QT interval,[12],218 ms
same,QTc,[12],297 ms
same,QT interval,[13],221 ms
same,QTc,[13],299 ms
same,QT interval,[14],225 ms
same,QTc,[14],304 ms
same,QT interval,[15],220 ms
same,QTc,[15],296 ms
same,QT interval,[16],210 ms
same,QTc,[16],292 ms
same,QT interval,[17],211 ms
same,QTc,[17],294 ms
same,QT interval,[18],210 ms
same,QTc,[18],291 ms
same,QT interval,[19],211 ms
same,QTc,[19],291 ms
same,QT interval,[20],235 ms
same,QTc,[20],320 ms
same,QT interval,[21],226 ms
same,QTc,[21],305 ms
same,QT interval,[22],240 ms
same,QTc,[22],293 ms
same,QT interval,[23],243 ms
same,QTc,[23],315 ms
same,QT interval,[24],236 ms
same,QTc,[24],310 ms
same,QT interval,[25],223 ms
same,QTc,[25],296 ms
same,QT interval,[26],218 ms
same,QTc,[26],297 ms
same,QT interval,[27],211 ms
same,QTc,[27],288 ms
same,QT interval,[28],213 ms
same,QTc,[28],292 ms
same,QT interval,[29],215 ms
same,QTc,[29],293 ms
same,QT interval,[30],210 ms
same,QTc,[30],292 ms
same,QT interval,[31],210 ms
same,QTc,[31],289 ms
same,QT interval,[32],210 ms
same,QTc,[32],288 ms
same,QT interval,[33],225 ms
same,QTc,[33],303 ms
same,QT interval,[34],220 ms
same,QTc,[34],298 ms
same,QT interval,[35],221 ms
same,QTc,[35],299 ms
same,QT interval,[36],220 ms
same,QTc,[36],296 ms
same,QT interval,[37],215 ms
same,QTc,[37],293 ms
same,QT interval,[38],211 ms
same,QTc,[38],289 ms
same,QT interval,[39],215 ms
same,QTc,[39],292 ms
same,QT interval,[40],213 ms
same,QTc,[40],289 ms
same,QT interval,[41],226 ms
same,QTc,[41],303 ms
same,QT interval,[42],220 ms
same,QTc,[42],294 ms
same,arrhythmia in electrocardiographic waveform,[43],no arrhythmia observed
same,prolongation of the QT interval,[43],did not cause prolongation of the QT interval
